The source of these data is ChEMBL document CHEMBL6134767, “Advances in antibacterial agents for Mycobacterium fortuitum” (2025).

A word on the MIC: it is the lowest concentration that inhibits growth of the organism.

≈ marks a conversion by molar mass, not a printed value.

Holding throughout (assay type): functional
Test [1] has as its system Mycolicibacterium fortuitum. The test is described as follows: Antibacterial activity against Mycobacterium fortuitum.
In test [2] the test system is Mycolicibacterium fortuitum. The test is described as follows: Antimycobacterial activity against Mycobacterium fortuitum ATCC 6841.
Test [3] concerns Mycolicibacterium fortuitum. As to the kind of experiment: Antimycobacterial activity against Mycobacterium fortuitum ATCC 6841 assessed as reduction in microbial growth incubated for 72 hrs by resazurin dye based broth microdilution method. For orientation: Alamar Blue is a resazurin reagent that responds to reducing activity.
The test system of test [4] is Mycolicibacterium fortuitum. The test is described as follows: Antimycobacterial activity against Mycobacterium fortuitum ATCC 35931 assessed as reduction in bacterial growth.
The test system of test [5] is Mycolicibacterium fortuitum. As to the kind of experiment: Antimycobacterial activity against Mycobacterium fortuitum NCTC 10394 assessed as reduction in microbial growth incubated for 72 hrs by resazurin dye based broth microdilution method.

For the compound `N=C(N)N1N=C(/C=C/c2ccc(Cl)cc2)CC1c1ccc(Cl)cc1` (centres undefined), inhibition of growth in test [1] (MIC) required 0.43 µM (≈ 0.154 µg/mL). `CC1(C)CCC2=C(O1)c1ccccc1C(=O)C2=O` [LAPACHONE]: inhibition of growth in test [2] (MIC) required 0.13 µM (≈ 0.0315 µg/mL). On to `O=c1ccc2ncc(=O)n3c2n1C[C@H]3CN1CCC(NCc2cc3c(cn2)OCCC3)CC1` [GEPOTIDACIN], for which the minimum inhibitory concentration (MIC) in test [3] stood at 4.46 µM. In test [1], `O=C1C(=S)N(c2ccccc2)c2ccccc21` registered an MIC of 63 µM (≈ 15.1 µg/mL).

`COc1ncnc(SC(=S)N2CCCC2)c1[N+](=O)[O-]`: inhibition of growth in test [2] (MIC) required 5.19 µM (≈ 1.56 µg/mL). `Nc1ccc(-c2nc3cc(-c4ccc5[nH]c(-c6ccc(N)cc6)nc5c4)ccc3[nH]2)cc1` returned an MIC in test [1] of 19.2 µM (≈ 8 µg/mL).

Consider `CC(=O)O[C@@H]1[C@@H](OC(C)=O)[C@@H](O)[C@H](OC[C@]2(C)[C@@H](O)C[C@H](O)[C@]3(C)[C@H]4CC=C5[C@@H]6C[C@](C)(C(=O)O[C@@H]7O[C@@H](C)[C@H](O)[C@@H](O)[C@H]7O)CC[C@]6(C)CC[C@@]5(C)[C@]4(C)CC[C@@H]23)O[C@H]1C`, for which the minimum inhibitory concentration (MIC) in test [1] is 27.9 µM (≈ 24.2 µg/mL). `COc1cc(O)cc(/C=C/c2cc3ccccc3s2)c1` displayed a minimal inhibitory concentration (MIC) in test [1] of 56.7 µM (≈ 16 µg/mL).

With `C[C@H](OC(=O)c1cc([N+](=O)[O-])cc([N+](=O)[O-])c1)c1ccccc1`, the MIC in test [1] was above 10.3 µM.

With `C/C=C/c1cc(OC)c2oc(-c3ccc(O)c(OC)c3)c(C)c2c1`, inhibition of growth in test [2] (MIC) required 0.15 µM (≈ 0.0487 µg/mL). As for `COc1cccc(C(c2ccc(OCCN3CCCCC3)cc2)c2cccs2)c1` (centres undefined), the minimal inhibitory concentration (MIC) in test [4] was 7.67 µM (≈ 3.13 µg/mL). On to `CC(=O)NC[C@H]1CN(c2ccc(-c3ccc(-c4nnnn4C)nc3)c(F)c2)C(=O)O1`, for which, in test [3], the MIC was determined as 0.61 µM. Consider `C[C@@H](NC(=O)c1cc([N+](=O)[O-])cc([N+](=O)[O-])c1)c1ccccc1`, for which 1.27 µM (≈ 0.4 µg/mL) was the least that counted as inhibitory in test [1] (MIC). Turning to `N#Cc1cc([N+](=O)[O-])cnc1SC(=S)N1CCCCC1`, the MIC in test [2] came to 5.05 µM (≈ 1.56 µg/mL). With `O=c1ccc2nccc3c4ccccc4n1c23` [CANTHIN-6-ONE], the minimum inhibitory concentration (MIC) in test [5] turned out to be 72.7 µM.

Regarding `OCCCCCCCCN=C=S`, the MIC was 21.4 µM (≈ 4 µg/mL) in test [2] and 20 µM (≈ 3.74 µg/mL) in test [1]. On to `O=[N+]([O-])c1ccc(C2=NOC(c3ccc(N4CCC(Oc5ccc(OC(F)(F)F)cc5)CC4)cc3)C2)o1` (centres undefined), for which the minimum inhibitory concentration (MIC) in test [3] turned out to be 12.1 µM. For `Cc1ccccc1/C=C/C1=NN(C(=N)N)C(c2ccccc2C)C1` (centres undefined), the MIC in test [1] turned out to be 0.49 µM (≈ 0.156 µg/mL). Still for that read-out and setting: as for `CCCCN1C(=S)C(=O)c2ccccc21`, the figure is 32 µM (≈ 7.02 µg/mL).

In test [1], `Cc1c(Cc2ccc(N3CCNCC3)cn2)cc(-c2ccc(Cl)cc2)n1-c1ccc(Cl)cc1` showed an MIC of 16.8 µM (≈ 8.02 µg/mL). As for `COc1c(N2CCN(c3ccc(N4C[C@H](CNC(C)=O)OC4=O)cc3F)CC2)cnc2nccn12`, in test [3], the MIC came out at 2.07 µM.

In test [2], `CC(C)(O)c1cc2c(o1)C(=O)c1ccccc1C2=O` [AVICEQUINONE C] had an MIC of 48.8 µM (≈ 12.5 µg/mL).

Take `N=C(N)N1N=C(/C=C/c2ccccc2)CC1c1ccccc1` (centres undefined): the minimum inhibitory concentration (MIC) in test [1] stood at 0.54 µM (≈ 0.157 µg/mL).

For `CC(=O)c1c(O)c(C)c(O)c2c1OC1=CC(=O)C(C(C)=O)C(=O)C12C` (centres undefined), the minimum inhibitory concentration (MIC) in test [4] is 0.15 µM (≈ 0.0516 µg/mL). Compound `CCOC(=O)/C=C/C(=O)c1cc2ccccc2s1` had an MIC in test [1] of 61.5 µM (≈ 16 µg/mL). `C[n+]1ccc(-c2c3nc(c(-c4cc[n+](C)cc4)c4ccc([nH]4)c(-c4cc[n+](C)cc4)c4ccc([nH]4)c(-c4cc[n+](C)cc4)c4nc2C=C4)C=C3)cc1` [TMPYP4]: the minimal inhibitory concentration (MIC) in test [4] is 50 µM. In test [2], `NC(=O)c1cc([N+](=O)[O-])cc([N+](=O)[O-])c1SC(=S)N1CCCC1` displayed an MIC of 17.5 µM (≈ 6.25 µg/mL). With `COc1ccc(C(c2ccc(OCCN3CCCCC3)cc2)c2cccs2)cc1` (centres undefined), the MIC in test [4] amounted to 7.67 µM (≈ 3.13 µg/mL). For `COc1ncccc1Nc1cc2nc3ccccc3n(-c3ccc(OC(F)(F)F)cc3)c-2c/c1=N\C1CCC(OC)CC1` (centres undefined), the MIC in test [3] is 1.17 µM. Compound `CC(C)(O)[C@@H]1OC2=C(C(=O)c3ccccc3C2=O)[C@H]1O` had a minimum inhibitory concentration (MIC) in test [2] of 45.6 µM (≈ 12.5 µg/mL). On to `COc1cc([C@](O)(CCN(C)C)[C@@H](c2cc3cc(Br)ccc3nc2OC)c2ccnc(OC)c2OC)cc(OC)n1`, for which, in test [3], the MIC was 0.9 µM.

On to `N#Cc1cc([N+](=O)[O-])cnc1SC(=S)N1CCCCCC1`, for which the minimal inhibitory concentration (MIC) in test [2] was 2.48 µM (≈ 0.8 µg/mL). With `CCN(CC)CCCCOc1cc2oc3cc(OCCCCN(CC)CC)c(OC)c(CC=C(C)C)c3c(=O)c2c(OCCCCN(CC)CC)c1CC=C(C)C`, the MIC in test [4] was determined as 15.8 µM (≈ 12.5 µg/mL). `CCN(CC)C(=S)Sc1ncc([N+](=O)[O-])cc1C#N`: 1.35 µM (≈ 0.4 µg/mL) was the least that counted as inhibitory in test [2] (MIC).

Turning to `CC(C)N(CCOc1ccc(C(c2ccc(Cl)cc2)c2cccs2)cc1)C(C)C` (centres undefined), the MIC in test [4] is 29.3 µM (≈ 12.5 µg/mL).

Consider `CN1C(=S)C(=O)c2ccccc21`, for which the MIC in test [1] stood at 63 µM (≈ 11.2 µg/mL).

Regarding `CC(=O)O[C@@H]1[C@@H](OC(C)=O)[C@@H](O)[C@H](OC[C@]2(C)[C@@H](O)C[C@H](O)[C@]3(C)[C@H]4CC=C5[C@@H]6C[C@](C)(C(=O)O)CC[C@]6(C)CC[C@@]5(C)[C@]4(C)CC[C@@H]23)O[C@H]1C`, in test [1], 17.1 µM (≈ 12.3 µg/mL) was the least that counted as inhibitory (MIC). As to `CC(=O)NC[C@H]1CN(c2ccc(N3CCN(c4ccc5nccn5n4)CC3)c(F)c2)C(=O)O1`, the MIC in test [3] worked out at 2.2 µM.
